Measured values as given in patent US8395037B2, “Pharmaceutical compositions for treating/preventing motor organ diseases” (Mitsubishi Corporation, priority 2005, dated 2013).

Legend:
[1] = system: osteoarthritis model (rabbit); assay: Comparative test of water-solubilized fullerene and hyaluronic acid formulation in osteoarthritis model; type: in vivo; details: 1.0 μM, 2.0 ml/rabbit, eighth week; compared with hyaluronic acid formulation
Description: The medicinal effect of water-solubilized fullerene (cyclodextrin clathrate C60) was examined comparatively with a known articular function-improving agent (the hyaluronic acid formulation Suvenyl (registered trademark)). Specifically, the effects at the eighth week after the start of treatment on rabbits in the following five groups (A) to (E) were examined. Each group consisted of four rabbits and the administration dosage was 2.0 ml/rabbit in all groups.
Test groups: (A) Sham-operation, group administered with Suvenyl; (B) Sham-operation, group administered with 50% polyethylene glycol; (C) Osteoarthritis model, group administered with 1.0 μM water-solubilized fullerene; (D) Osteoarthritis model, group administered with 50% Suvenyl; (E) Osteoarthritis model, group administered with 1.0 μM water-solubilized fullerene and Suvenyl.

MMP-3 = MMP-3 concentration in synovial fluid of osteoarthritis model knee joints (ELISA); type: in vivo, rabbit; details: various concentrations, sequential measurement, versus control knees
Description: (§1) Sequential biochemical examinations of blood and synovial fluid were also performed (pre-administration and fourth- and eighth-week post-administration of water-solubilized fullerene). The observed biochemical examination items were (A) hepatic function (GOT and GPT), renal function (urea nitrogen and creatinine), and electrolytes (Na, K, and Cl), (B) extracellular matrix-degrading enzyme production ability (MMP-1, 3, and 13), and (C) cartilage matrix-synthesizing ability (proteoglycan). The items of (A) were measured by commercially available testing equipments and items of (B) and (C) were measured by ELISA method.

[2] = system: osteoarthritis model animals (rabbits); assay: Osteoarthritis rabbit model, intraarticular water-solubilized fullerene 0.1 to 40.0 μM, safranin O cartilage degeneration; type: in vivo; details: for Efficacy on cartilage degeneration (rabbits responding): eight-week administration
Description: Various concentrations (0.1, 1.0, 10.0, or 40.0 μM) of water-solubilized fullerene (cyclodextrin clathrate C60) was injected into the right knee joints of osteoarthritis model animals (rabbits), and solvent alone was injected into the left knee joints as controls intraarticularly once a week. On the fourth or eighth week after the start of administration, the knees were dissected and stained with safranin O, to compare the degree of cartilage degeneration of medial and lateral tibia.
As described above, the therapeutic effect of the four-week or eight-week repetitive administration with water-solubilized fullerene was confirmed. Therefore, the therapeutic effect of a single administration of water-solubilized fullerene was also examined. Immediately after the preparation of an osteoarthritis rabbit model, a single dose of water-solubilized fullerene was administered. On the eighth week, articular cartilage tissue samples were prepared, and the therapeutic effect was examined.

proteoglycan = assay: Proteoglycan concentration in synovial fluid of osteoarthritis model knee joints (ELISA); type: in vivo, rabbit; details: sequential measurement
Description: as §1

[3] = General condition, organ histology and blood biochemical examination during eight-week administration; type: in vivo, rabbit
Description: In particular, in the eight-week administration, the inhibitory effect of water-solubilized fullerene on cartilage degeneration was more remarkable in the 1.0 μM and 10.0 μM administered groups rather than the 0.1 μM administered group. […] During the eight-week test period, decrease in body weight, insufficient feeding, hematuria, or abnormal hair coat was not observed in the experimental animals.
as §1

[4] = Lubricating effect: pendulum-type dynamic friction coefficient measurement; type: physicochemical; details: for Dynamic friction coefficient: room temperature, mean of three
Description: Lubricating effect of fullerene was examined using three different solutions. 20 ml each of the solutions of (A) osteoarthritis patient-derived synovial fluid, (B) 50% polyethylene glycol solution, and (C) joint function-improving agent (hyaluronic acid formulation) were prepared, and dispensed into two tubes at 10 ml each. One 10 ml solution was mixed with fullerene (C60) to adjust the final concentration to 1.0 μM. The other 10 ml solution was used as a control solution. The dynamic friction coefficients of the respective solutions at room temperature were measured three times by a pendulum-type dynamic friction coefficient measuring apparatus (Japan Lubricating Oil Society), and the mean values were calculated. The dynamic friction coefficients were compared between the fullerene solutions and the control solutions.

[5] = 1 μM in 50% polyethylene glycol
[6] = 1 μM in hyaluronic acid formulation
[7] = 1 μM in osteoarthritis patient-derived synovial fluid

Compound	Inhibitory effect on the production of cartilage matrix-degrading enzymes (MMPs) [1]	Producing/maintaining effect of proteoglycan [1]	MMP-3 concentration in synovial fluid (MMP-3)	Cartilage degeneration inhibitory effect across doses ([2]; 0.1 μM to 40 μM, four-week administration)	Efficacy on cartilage degeneration (rabbits responding) ([2]; 0.1 μM)	Efficacy on cartilage degeneration (rabbits responding) ([2]; 1.0 μM)	Efficacy on cartilage degeneration (rabbits responding) ([2]; 10.0 μM)	Efficacy on cartilage degeneration (rabbits responding) ([2]; 40.0 μM)	Inhibitory effect on articular cartilage degeneration ([2]; 0.1, 1.0, 10.0 or 40.0 μM intraarticular once a week, four-week and eight-week administration)	Inhibitory effect on cartilage degeneration after single administration ([2]; single dose immediately after model preparation, eighth week, versus control knees)	Proteoglycan concentration in synovial fluid (proteoglycan)	Decrease in body weight, insufficient feeding, hematuria, abnormal hair coat ([3]; eight-week test period)	Optical microscopic observation of organs other than the joints (brain, lung, liver, kidney, adrenal, testis) ([3]; eight-week test period)	Hepatic function, renal function, electrolyte balance ([3]; pre-administration, fourth and eighth week post-administration)	Friction coefficient decreasing rate to control solution [4, 5]	Dynamic friction coefficient [4, 5]	Friction coefficient decreasing rate to control solution [4, 6]	Dynamic friction coefficient [4, 6]	Friction coefficient decreasing rate to control solution [4, 7]	Dynamic friction coefficient [4, 7]
cyclodextrin clathrate C60 [water-solubilized fullerene]	more remarkable effects than the hyaluronic acid formulation	more remarkable effects than the hyaluronic acid formulation	not clear	almost equivalent	a mild efficacy in all four rabbits	a moderate efficacy in two rabbits and a remarkable efficacy in one rabbit out of a total of four	a remarkable efficacy in three rabbits out of a total of four	a mild efficacy in one rabbit and moderate efficacy in another rabbit out of a total of three	confirmed at the respective concentrations	no clear inhibitory effect on cartilage degeneration was observed	not clear	not observed	no findings showing degeneration in the respective tissues	not significantly changed	–	–	–	–	–	–
c12c3c4c5c1c1c6c7c2c2c8c3c3c9c4c4c%10c5c5c1c1c6c6c%11c7c2c2c7c8c3c3c8c9c4c4c9c%10c5c5c1c1c6c6c%11c2c2c7c3c3c8c4c4c9c5c1c1c6c2c3c41 [C60, fullerene (C60)]	–	–	–	–	–	–	–	–	–	–	–	–	–	–	25%	0.104	42%	0.116	37%	0.111
